# According to the NIST ThermoML archive (doi:10.1016/j.tca.2019.178318):
# Numbers after ± are expanded uncertainties.
# Details: Liquid, Ebulliometric method (Recirculating still)
compound,measurement,setting,value
"C=C1C2CCC(C2)C1(C)C (stereo unspecified) [2,2-dimethyl-3-methylenebicyclo[2.2.1]heptane]",vapor or sublimation pressure,432.73 K,101.33 ± 4.1 kPa
same,vapor or sublimation pressure,432.74 K,101.33 ± 4.1 kPa
same,vapor or sublimation pressure,432.76 K,101.33 ± 4.1 kPa
same,vapor or sublimation pressure,432.8 K,101.33 ± 4.1 kPa
C=C1CC/C=C(\C)CC[C@@H]2[C@@H]1CC2(C)C,vapor or sublimation pressure,526.4 K,101.33 ± 4.1 kPa
same,vapor or sublimation pressure,526.47 K,101.33 ± 4.1 kPa
same,vapor or sublimation pressure,526.53 K,101.33 ± 4.1 kPa
Cc1ccc(C(C)C)cc1 [1-(1-methylethyl)-4-methylbenzene],vapor or sublimation pressure,449.7 K,101.33 ± 4.1 kPa
CC1=CC[C@@H]2[C@H](C1)C2(C)C [(+)-3-carene],vapor or sublimation pressure,442.63 K,101.33 ± 4.1 kPa
CC1=CCC2CC1C2(C)C (stereo unspecified) [2-pinene],vapor or sublimation pressure,428.64 K,101.33 ± 4.1 kPa
same,vapor or sublimation pressure,428.65 K,101.33 ± 4.1 kPa
